The source of these data is patent US9139529B2, “Substituted quinoxalines as sodium channel modulators” (VERTEX PHARMACEUTICALS INCORPORATED, priority 2013, dated 2015).

A word on the IC50: it is the concentration needed to halve the response being measured.

Chain of human Nav1.8 (Q9Y5Y9 whole entry): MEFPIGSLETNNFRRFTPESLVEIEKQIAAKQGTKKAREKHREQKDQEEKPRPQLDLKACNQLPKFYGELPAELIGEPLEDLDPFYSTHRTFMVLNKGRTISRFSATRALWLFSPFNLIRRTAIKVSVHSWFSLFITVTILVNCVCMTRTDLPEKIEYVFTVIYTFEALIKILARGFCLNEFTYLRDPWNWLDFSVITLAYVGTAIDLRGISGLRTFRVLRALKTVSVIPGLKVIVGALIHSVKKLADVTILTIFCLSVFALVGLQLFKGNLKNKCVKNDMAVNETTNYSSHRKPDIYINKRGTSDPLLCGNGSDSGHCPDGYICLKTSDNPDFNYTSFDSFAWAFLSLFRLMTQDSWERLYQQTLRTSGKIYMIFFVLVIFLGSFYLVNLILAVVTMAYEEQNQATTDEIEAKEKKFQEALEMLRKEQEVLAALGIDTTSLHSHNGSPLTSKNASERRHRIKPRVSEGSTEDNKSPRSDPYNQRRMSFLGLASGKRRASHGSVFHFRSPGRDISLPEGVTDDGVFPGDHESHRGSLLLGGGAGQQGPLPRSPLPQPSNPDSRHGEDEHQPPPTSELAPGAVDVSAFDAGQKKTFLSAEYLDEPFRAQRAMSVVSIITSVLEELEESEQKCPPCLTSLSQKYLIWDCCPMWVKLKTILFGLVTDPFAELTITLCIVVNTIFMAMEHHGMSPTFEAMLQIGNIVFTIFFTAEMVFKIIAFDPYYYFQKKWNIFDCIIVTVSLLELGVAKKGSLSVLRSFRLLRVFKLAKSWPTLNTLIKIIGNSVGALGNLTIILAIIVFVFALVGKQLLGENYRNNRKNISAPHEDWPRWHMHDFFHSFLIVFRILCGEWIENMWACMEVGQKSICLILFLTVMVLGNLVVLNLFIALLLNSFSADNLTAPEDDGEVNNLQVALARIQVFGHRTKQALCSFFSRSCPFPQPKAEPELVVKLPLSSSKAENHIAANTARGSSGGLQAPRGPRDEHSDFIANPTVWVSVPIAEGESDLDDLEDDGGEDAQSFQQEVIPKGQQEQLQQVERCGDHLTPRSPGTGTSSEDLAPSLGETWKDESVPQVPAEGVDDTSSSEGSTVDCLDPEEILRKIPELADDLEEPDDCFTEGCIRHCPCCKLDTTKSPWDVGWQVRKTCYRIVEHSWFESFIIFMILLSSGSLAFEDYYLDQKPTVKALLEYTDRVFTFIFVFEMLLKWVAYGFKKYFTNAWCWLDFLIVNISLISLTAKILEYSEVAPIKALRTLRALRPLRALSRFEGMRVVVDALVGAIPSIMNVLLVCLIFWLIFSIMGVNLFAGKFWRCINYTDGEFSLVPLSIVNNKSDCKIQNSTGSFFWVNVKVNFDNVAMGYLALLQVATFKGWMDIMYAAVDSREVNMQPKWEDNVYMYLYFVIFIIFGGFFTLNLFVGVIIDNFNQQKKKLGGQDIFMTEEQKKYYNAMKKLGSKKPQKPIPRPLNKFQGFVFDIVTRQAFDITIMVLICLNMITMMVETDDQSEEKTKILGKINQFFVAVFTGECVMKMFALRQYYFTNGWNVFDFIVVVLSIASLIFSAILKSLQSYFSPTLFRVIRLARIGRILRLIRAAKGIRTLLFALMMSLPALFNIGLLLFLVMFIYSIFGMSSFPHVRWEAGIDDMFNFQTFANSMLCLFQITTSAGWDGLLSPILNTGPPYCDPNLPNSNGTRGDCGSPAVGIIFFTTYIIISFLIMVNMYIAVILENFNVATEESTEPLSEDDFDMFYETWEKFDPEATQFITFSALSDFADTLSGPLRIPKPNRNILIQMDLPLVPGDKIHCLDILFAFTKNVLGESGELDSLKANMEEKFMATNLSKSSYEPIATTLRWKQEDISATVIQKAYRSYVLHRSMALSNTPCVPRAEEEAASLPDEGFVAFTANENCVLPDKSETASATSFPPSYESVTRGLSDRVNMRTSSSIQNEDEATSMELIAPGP

In the assay the target is human Nav1.8 (Homo sapiens (Human), UniProt Q9Y5Y9). The assay is described as follows: E-VIPR optical membrane potential assay with electrical stimulation. The settings on record: HEK cells expressing human Nav1.8. Type of assay: cell-based. The source says:
Assays for Detecting and Measuring NaV Inhibition Properties of Compounds E-VIPR Optical Membrane Potential Assay Method with Electrical Stimulation
Sodium channels are voltage-dependent proteins that can be activated by inducing membrane voltage changes by applying electric fields. The electrical stimulation instrument and methods of use are described in Ion Channel Assay Methods PCT/US01/21652, herein incorporated by reference and are referred to as E-VIPR. The instrument comprises a microtiter plate handler, an optical system for exciting the coumarin dye while simultaneously recording the coumarin and oxonol emissions, a waveform generator, a current- or voltage-controlled amplifier, and a device for inserting electrodes in well. Under integrated computer control, this instrument passes user-programmed electrical stimulus protocols to cells within the wells of the microtiter plate.
24 hours before the assay on E-VIPR, HEK cells expressing human Nav1.8 were seeded in 384-well poly-lysine coated plates at 15,000-20,000 cells per well. HEK cells were grown in media (exact composition is specific to each cell type and NaV subtype) supplemented with 10% FBS (Fetal Bovine Serum, qualified; GibcoBRL #16140-071) and 1% Pen-Strep (Penicillin-Streptomycin; GibcoBRL #15140-122). Cells were grown in vented cap flasks, in 90% humidity and 5% CO2.
1) Pre-spotted compounds (in neat DMSO) into compound plates. Vehicle control (neat DMSO), the positive control (20 mM DMSO stock tetracaine, 125 μM final in assay) and test compounds were added to each well at 160× desired final concentration in neat DMSO. Final compound plate volume was 80 μL (80-fold intermediate dilution from 1 μL DMSO spot; 160-fold final dilution after transfer to cell plate). Final DMSO concentration for all wells in assay was 0.625%.
2) Prepared Hexyl Dye Solution.
3) Prepared cell plates. On the day of the assay, medium was aspirated and cells were washed three times with 100 μL of Bath1 Solution, maintaining 25 μL residual volume in each well.
4) Dispensed 25 μL per well of Hexyl Dye Solution into cell plates. Incubated for 20-35 minutes at room temp or ambient conditions.
5) Dispensed 80 μL per well of Bath1 into compound plates. Acid Yellow-17 (1 mM) was added and Potassium Chloride was altered from 4.5 to 20 mM depending on the NaV subtype and assay sensitivity.
6) Washed cell plates three times with 100 μL per well of Bath1, leaving 25 μL of residual volume. Then transferred 25 uL per well from Compound Plates to Cell Plates. Incubated for 20-35 minutes at room temp/ambient condition.
7) Read Plate on E-VIPR. Used the current-controlled amplifier to deliver stimulation wave pulses for 10 seconds and a scan rate of 200 Hz. A pre-stimulus recording was performed for 0.5 seconds to obtain the un-stimulated intensities baseline. The stimulatory waveform was followed by 0.5 seconds of post-stimulation recording to examine the relaxation to the resting state.
Data was analyzed and reported as normalized ratios of emission intensities measured in the 460 nm and 580 nm channels. The response as a function of time was reported as the ratios obtained using the following formula: […]
The data was further reduced by calculating the initial (Ri) and final (Rf) ratios. These were the average ratio values during part or all of the pre-stimulation period, and during sample points during the stimulation period. The response to the stimulus R=Rf/Ri was then calculated and reported as a function of time.
Control responses were obtained by performing assays in the presence of a compound with the desired properties (positive control), such as tetracaine, and in the absence of pharmacological agents (negative control). Responses to the negative (N) and positive (P) controls were calculated as above. The compound antagonist activity A is defined as:
[formula] where R is the ratio response of the test compound
On to `COc1ccc(Oc2nc3ccccc3nc2C(=O)Nc2cccc(S(N)(=O)=O)c2)cc1F` [Compound 7, 3-(3-fluoro-4-methoxyphenoxy)-N-(3-sulfamoylphenyl)quinoxaline-2-carboxamide], for which inhibition was half-maximal at 42 nM (IC50). That is a double-digit nanomolar value.
Then `COc1cc(F)ccc1Oc1nc2ccccc2nc1C(=O)Nc1ccc(C#N)cc1` [Compound 55, N-(4-cyanophenyl)-3-(4-fluoro-2-methoxyphenoxy)quinoxaline-2-carboxamide], with 46 nM; and `COc1ccc(Oc2nc3ccccc3nc2C(=O)Nc2ccc(C(=O)O)nc2)c(F)c1` [Compound 21, 5-(3-(2-fluoro-4-methoxyphenoxy)quinoxaline-2-carboxamido)picolinic acid], with 235 nM.
The value for `COc1cc(Cl)ccc1Oc1nc2ccccc2nc1C(=O)Nc1cccc(S(N)(=O)=O)c1` [Compound 11, 3-(4-chloro-2-methoxyphenoxy)-N-(3-sulfamoylphenyl)quinoxaline-2-carboxamide] was 5 nM; that for `COc1cc(F)ccc1Oc1nc2ccccc2nc1C(=O)Nc1cn[nH]c1` [Compound 43, 3-(4-fluoro-2-methoxyphenoxy)-N-(1H-pyrazol-4-yl)quinoxaline-2-carboxamide] was 220 nM.
Compound `NS(=O)(=O)c1cccc(NC(=O)c2cc3ccccc3nc2Oc2ccc(F)cc2Cl)c1` [Compound 66, 2-(2-chloro-4-fluorophenoxy)-N-(3-sulfamoylphenyl)quinoline-3-carboxamide] showed an IC50 of 2 nM.
On to `COc1cc(F)ccc1Oc1nc2ccccc2nc1C(=O)Nc1cccc(C#N)c1` [Compound 56, N-(3-cyanophenyl)-3-(4-fluoro-2-methoxyphenoxy)quinoxaline-2-carboxamide], for which half-maximal inhibition (IC50) required 30 nM.
Then `O=C(O)c1ccc(NC(=O)c2nc3ccccc3nc2Oc2ccc(OC(F)(F)F)cc2)cn1` [Compound 31, 5-(3-(4-(trifluoromethoxy)phenoxy)quinoxaline-2-carboxamido)picolinic acid], with 15 nM; and `COc1cc(F)ccc1Oc1nc2ccccc2nc1C(=O)Nc1ccc(C(=O)O)nc1` [Compound 32, 5-(3-(4-fluoro-2-methoxyphenoxy)quinoxaline-2-carboxamido)picolinic acid], with 83 nM; and `NS(=O)(=O)c1cccc(NC(=O)c2cc3ccccc3nc2Oc2ccccc2)c1` [Compound 64, 2-phenoxy-N-(3-sulfamoylphenyl)quinoline-3-carboxamide], with 81 nM.
Then `COc1cc(F)ccc1Oc1nc2ccccc2nc1C(=O)Nc1cccc(C(N)=O)c1` [Compound 59, N-(3-carbamoylphenyl)-3-(4-fluoro-2-methoxyphenoxy)quinoxaline-2-carboxamide], with 180 nM; and `NS(=O)(=O)c1cccc(NC(=O)c2nc3ccccc3nc2Oc2ccc(F)cc2F)c1` [Compound 5, 3-(2,4-difluorophenoxy)-N-(3-sulfamoylphenyl)quinoxaline-2-carboxamide], with 13 nM; and `Cc1cc(F)ccc1Oc1nc2ccccc2nc1C(=O)Nc1cccc(S(N)(=O)=O)c1` [Compound 14, 3-(4-fluoro-2-methylphenoxy)-N-(3-sulfamoylphenyl)quinoxaline-2-carboxamide], with 7 nM.
`O=C(O)c1ccc(NC(=O)c2nc3ccccc3nc2Oc2ccccc2)cn1` [Compound 20, 5-(3-phenoxyquinoxaline-2-carboxamido)picolinic acid] came in with an IC50 of 1080 nM.
The value for `COc1ccc(Oc2nc3ccccc3nc2C(=O)Nc2cccc(S(N)(=O)=O)c2)c(OC)c1` [Compound 8, 3-(2,4-dimethoxyphenoxy)-N-(3-sulfamoylphenyl)quinoxaline-2-carboxamide] was 6 nM; that for `CNS(=O)(=O)c1cccc(NC(=O)c2nc3ccccc3nc2Oc2ccc(F)cc2OC)c1` [Compound 16, 3-(4-fluoro-2-methoxyphenoxy)-N-(3-(N-methylsulfamoyl)phenyl)quinoxaline-2-carboxamide] was 22 nM.
